In patent publication US20080118441A1, “COMPOSITIONS AND METHODS FOR THE TREATMENT OF GASTROINTESTINAL CONDITIONS” (priority 2006, published 2008):

System: symptoms of a gastrointestinal condition
Assay: ingestion of glutamine shortly after the present compositions
Format: in vivo
Details: glutamine ingested shortly after the compositions
Text: In one example, the symptoms of a gastrointestinal condition will reappear rapidly if glutamine is ingested shortly after the present compositions. Exclusion of glutamine from the present compositions is therefore contemplated, and it may be advisable for persons being treated with the present compositions to reduce dietary consumption of glutamine, especially within one hour of ingesting the disclosed composition. Typically, an average person consumes 5-10 grams glutamine per day. In one embodiment, a person being treated with the present composition consumes no glutamine within one hour of ingestion, and preferably consumes less than about 5 grams glutamine per day, more preferably less than about 4.5 grams glutamine per day, and most preferably less than about 4 grams glutamine per day.

## NC(=O)CC[C@H](N)C(=O)O [glutamine]
  effect on the therapeutic effect of the disclosed compositions: counteracts the therapeutic effect
